For one test, the system named is PC12 cells. Description: PC12 cell differentiation by growth factor released from laminates. The test is classed as cell-based. The settings on record: growth factor solution control (50 ng/disc); 48 hours. The protocol: Specifically, a collagen gel was prepared as described in Example 3. Once formed the gel was spiked with either human recombinant FGF2 or NGF. Sterile FM scaffold sheets were cut to 8 mm discs, and growth factor spiked collagen gel (10 μL) was applied to one surface. A second FM scaffold disc was applied to the collagen layer to create a laminate sandwich (i.e., FM scaffold/bioactive collagen polymer/FM scaffold). The bioactive FM scaffold laminates were dehydrated at 25° C. for 2 hours to yield a bonded laminate. The FM laminates were produced with FGF2 or NGF at either 0, 250 or 500 ng/disc. The bioactive FM scaffolds were incubated at 37° C. for 24 hours in DMEM (1 mL) to extract the bound growth factor prior to application to a cell monolayer. PC12 cells were seeded onto 24-well plates at 20 k cells/well in DMEM (1 mL) and incubated for 24 hours at 37° C. Media was removed from the cells and replaced with DMEM (1 mL) that had been incubated with the bioactive FM scaffold laminates. Positive control cells were treated with a solution of either FGF2 or NGF at 50 ng/mL final concentration. Cells were incubated for 48 hours. […] Total cells were counted per frame, as well as the total number of cell processes per frame. […] Growth factor stimulated cell differentiation was expressed as the number of cell processes per cell per frame. Results are expressed as Table 19. […]

Test [1] concerns PI-3: Parainfluenza virus type 3 (Paramyxoviridae). The conditions noted are these: 0.3% PAA/5% Ethanol in PBS. As to the method: (§1) A study was undertaken to examine viral inactivation during the STOF processes and PAA treatment using three model viruses.
(§2) The level of viral inactivation was tested using a scaled-down manufacturing process. This involved spiking high-titre viral stocks of each of the three model viruses into samples representing two different stages of the manufacturing process, and subjecting these spiked samples to a treatment analogous to the corresponding manufacturing step. The level of virus inactivation during each treatment was determined by comparing the viral titres recovered from the spiked samples after each treatment, with viral recovery from untreated samples.
(§3) The model viruses were chosen to include viruses with different physio-chemical characteristics, such as the presence or absence of envelope, type of nucleic acid genome (DNA or RNA) and survival in the environment/resistance to disinfection (Table 22). The amount of infectious virus present in samples was determined by end-point titration and viral titres were expressed as tissue culture infective dose, 50% (TCID50).

The subject of test [2] is FHV-1: Felid herpesvirus type 1 (Herpesviridae). Briefly: Viral inactivation in scaled-down manufacturing process. The conditions noted are these: 0.3% PAA/5% Ethanol in PBS. As to the method:
as §1, §2, §3

For test [3], the system named is BEV: Bovine enterovirus (Picornaviridae). Described as above. The settings on record: 0.3% PAA/5% Ethanol in PBS. As to the method: as §1, §2, §3
The subject of a further test is S. aureus. Briefly: Anti-microbial zone of inhibition on Mueller-Hinton agar. In kind it is cell-based. Details: key: ‘+++’ indicates a bioactivity comparable to the positive control; ‘−’ indicates no bioactivity. The settings on record: positive control, solution on sterile filter paper disc. The protocol: Plates of Mueller-Hinton agar were prepared and streaked with 100 μL of 10^8 S. aureus and left to dry for 5-10 minutes. Using sterile technique, discs were transferred to the plates and the plates incubated for 24 hours at 35° C. After 24 hours, plates were digitally imaged and the anti-microbial zone of inhibition around each of the discs was scored relative to the positive control.

With “rhFGF2: human recombinant FGF2 solution, positive control”, the “Relative cell response (cell processes per cell per frame)” value in the test on PC12 cells is on record as 0.72 ± 0.02.
Same read-out and setting: under rhNGF: NGF solution, positive control stands 0.73 ± 0.01.
Consider `CC(=O)OO` [PAA, peracetic acid], for which the figures for the “PAA Inactivation” value in test [1], in test [2] and in test [3] were “≧2.3 log TCID50”, “≧2.6 log TCID50” and 7.3 log TCID50, respectively.
Take `C[C@H]1c2cccc(O)c2C(=O)C2=C(O)[C@]3(O)C(=O)C(C(N)=O)=C(O)[C@@H](N(C)C)[C@@H]3[C@@H](O)[C@@H]21` [Doxycycline]: the Antibacterial score result with S. aureus (30 μg/disc) is on record as “+++”.
Consider poly-L-lysine, for which, in the test on S. aureus (5 μg/disc), the Antibacterial score result is listed as “+++”.
